1 molecule from publication PMC10617776, “Bi-steric mTORC1 inhibitors induce apoptotic cell death in tumor models with hyperactivated mTORC1” (The Journal of Clinical Investigation, 2023) can be followed below.

One assay deals with T1, mTOR (mTORC1 and mTORC2) (Homo sapiens, UniProt P42345).
T1 construct: endogenous mTOR in HCV29 TSC1-null cells
The experiment in a line: immunoblot of mTORC1/mTORC2 substrate phosphorylation in cells ([…] h treatment). The class given is cell-based. In general terms: Immunoblotting shows a protein as a band on a membrane.

Another assay deals with T2, KTP-269-3C4 Tsc1-.
T2 construct: Tsc1-null
Nature of the assay: cells. The arrangement: cell proliferation by crystal violet staining, absorbance 540 nm. The note with it: 72 h.

Another assay relates to T3, 97-1 TSC1+.
T3 construct: TSC1 add-back
Nature of the assay: cells. The arrangement: cell proliferation by crystal violet staining, absorbance 540 nm. To be noted: 72 h.

The subject of the next assay is T4, 105K Tsc2+.
T4 construct: Tsc2 add-back
Nature of the assay: cells. More on the design: cell proliferation by crystal violet staining, absorbance 540 nm. The note with it: 72 h.

A further assay concerns T5, 705 Tsc2-.
T5 construct: Tsc2-null
The experiment in a line: cells. To be noted: 72 h. More on the design: cell proliferation by crystal violet staining, absorbance 540 nm.

Another assay deals with T6, RT4 TSC1-.
T6 construct: TSC1-null
The experiment in a line: cells. The note with it: 72 h. More on the design: cell proliferation by crystal violet staining, absorbance 540 nm.

For the next assay, the system named is T7, 105K Tsc2-.
T7 construct: Tsc2-null
The experiment in a line: cells. The arrangement: cell proliferation by crystal violet staining, absorbance 540 nm. To be noted: 72 h.

The next assay relates to T8, 857T Tsc1+.
T8 construct: Tsc1 wild-type
Nature of the assay: cells. To be noted: 72 h. More on the design: cell proliferation by crystal violet staining, absorbance 540 nm.

The next assay deals with T9, 855T Tsc1-.
T9 construct: Tsc1-null
The experiment in a line: cells. The note with it: 72 h. More on the design: cell proliferation by crystal violet staining, absorbance 540 nm.

The test system of another assay is T10, 634T Tsc1-.
T10 construct: Tsc1-null
Nature of the assay: cells. More on the design: cell proliferation by crystal violet staining, absorbance 540 nm. The note with it: 72 h.

The next assay relates to T11, TTJ Tsc2+.
T11 construct: Tsc2 add-back
Nature of the assay: cells. More on the design: cell proliferation by crystal violet staining, absorbance 540 nm. The note with it: 72 h.

The next assay concerns T12, KTP-267-2B8 Tsc1-.
T12 construct: Tsc1-null
The experiment in a line: cells. More on the design: cell proliferation by crystal violet staining, absorbance 540 nm. To be noted: 72 h.

Another assay has as its system T13, HCV29 TSC1+.
T13 construct: TSC1 add-back
The experiment in a line: cells. The arrangement: cell proliferation by crystal violet staining, absorbance 540 nm. The note with it: HCV-29, 72 h. How it is done: (§1) The effect of the compounds on cell proliferation was measured by crystal violet staining. Cells were plated in 96-well plates at a density of 500–2,000 cells (sextuples per condition). The next day, cells were treated with concentrations (0–100 nM) prepared by serial dilution. After 3 days of treatment, cells were fixed by 10% formalin for 10 minutes at room temperature. 0.05% crystal violet solution was added and incubated for 15 minutes at room temperature. Absorbance was read using Synergy HT (BioTek) at 540 nm. The inhibition curves and IC50 values were calculated by GraphPad Prism 9.0. TSC1-null HCV29 (BLCA cell line) and its TSC1–add-back derivative were treated with rapamycin, MLN0128, and bi-steric mTORC1 inhibitors.

A further assay relates to T14, HCV29 TSC1-.
T14 construct: TSC1-null
The experiment in a line: cells. More on the design: cell proliferation by crystal violet staining, absorbance 540 nm. The note with it: HCV-29, 72 h. How it is done: as §1

In the next assay the test system is T15, KTP-267-1B1 Tsc1-.
T15 construct: Tsc1-null
The experiment in a line: cells. The arrangement: cell proliferation by crystal violet staining, absorbance 540 nm. To be noted: 72 h. How it is done: as §1

In another assay the test system is T16, SNU886 TSC2+.
T16 construct: TSC2 add-back
The experiment in a line: cells. More on the design: cell proliferation by crystal violet staining, absorbance 540 nm. The note with it: SNU-886, 72 h. How it is done:
as §1

The subject of the next assay is T17, 705 TSC2+.
T17 construct: TSC2 add-back
The experiment in a line: cells. The note with it: 72 h. The arrangement: cell proliferation by crystal violet staining, absorbance 540 nm.

A further assay has as its system T18, 97-1 TSC1-.
T18 construct: TSC1-null
Nature of the assay: cells. The arrangement: cell proliferation by crystal violet staining, absorbance 540 nm. To be noted: 72 h.

The test system of a further assay is T19, TTJ Tsc2-.
T19 construct: Tsc2-null
The experiment in a line: cells. More on the design: cell proliferation by crystal violet staining, absorbance 540 nm. To be noted: 72 h.

Usually IC50 stands for the midpoint of a concentration-inhibition curve.

Consider `CC(C)n1nc(-c2ccc3oc(N)nc3c2)c2c(N)ncnc21` [MLN0128], for which, on mTOR (mTORC1 and mTORC2), the “immunoblot of mTORC1/mTORC2 substrate phosphorylation in cells (4 h treatment)” value is 10 to 30 nM. The IC50 with KTP-269-3C4 Tsc1- was found to be 26.9 nM; with 97-1 TSC1+, 46.8 nM; in the assay with 105K Tsc2+, 79.4 nM; in the assay on 705 Tsc2-, 50.1 nM; in the assay with RT4 TSC1-, 63.1 nM; with 105K Tsc2-, 41.7 nM. Moreover, the half-maximal inhibitory concentration (IC50) came to 70.8 nM in the assay on 857T Tsc1+; 31.6 nM in the assay on 855T Tsc1-; 60.3 nM in the assay with 634T Tsc1-; 50.1 nM in the assay on TTJ Tsc2+; 28.2 nM in the assay on KTP-267-2B8 Tsc1-; 35.5 nM in the assay with HCV29 TSC1+. For the same molecule, the IC50 with HCV29 TSC1- is 31.6 nM; in the assay on KTP-267-1B1 Tsc1- it was 44.7 nM; in the assay on SNU886 TSC2+ it was 44.7 nM; in the assay with 705 TSC2+, 50.1 nM; in the assay on 97-1 TSC1- it was 39.8 nM; in the assay with TTJ Tsc2-, 63.1 nM.
